Experimental data as given in patent publication US4232166A, “15-Deoxy-16-hydroxy-17-methylene prostaglandins of the E and F series” (American Cyanamid Company, priority 1979, dated 1980).

Columns and labels:
Type in all cases: in vivo
[1] = tested on: bronchospasms elicited by serotonin; assay: Konzett procedure: bronchodilator activity in Guinea-Pigs against bronchospasms elicited by intravenous serotonin; conditions: Cavia porcellus, three logarithmic cumulative intravenous doses
Description: (§1) The bronchodilator activity for representative compounds of this invention was determined in Guinea-Pigs against bronchospasms elicited by intravenous injections of serotonin, histamine, and acetylcholine, by the Konzett procedure the details of which are those discussed by J. Lulling, P Lievens, F. El Sayed and J. Prignot, Arzeimittel-Forschung 18, 995 (1968).
(§2) In the table which follows, bronchodilator activity for representative compounds of the invention against spasmogenic agents serotonin, histamine, and acetylcholine is expressed as an ED50 determined from the results obtained with three logarithmic cumulative intravenous doses.

[2] = tested on: bronchospasms elicited by acetylcholine; assay: Konzett procedure: bronchodilator activity in Guinea-Pigs against bronchospasms elicited by intravenous acetylcholine; conditions: Cavia porcellus, three logarithmic cumulative intravenous doses, read-out: ED50 ACETYL CHOLINE
Description: as §1, §2

[3] = tested on: bronchospasms elicited by histamine; assay: Konzett procedure: bronchodilator activity in Guinea-Pigs against bronchospasms elicited by intravenous histamine; conditions: Cavia porcellus, three logarithmic cumulative intravenous doses
Description: as §1, §2

Row | SMILES | ED50 [1] [µg/kg] | ED50 [2] [µg/kg] | ED50 [3] [µg/kg]
1 | C=C(CCC)C(C)(O)C/C=C/[C@H]1[C@H](O)CC(=O)[C@@H]1C/C=C\CCCC(=O)O (relative stereo) [dl 9-oxo-11α,16-dihydroxy-16-methyl-17-methylene-5-cis,13-trans-prostadienoic acid] | 2.5 | 3.6 | 1.2
2 | C=C(CCC)C(O)C/C=C/[C@H]1[C@H](O)CC(=O)[C@@H]1C/C=C\CCCC(=O)O (relative stereo) [dl 9-oxo-11α,16-dihydroxy-17-methylene-5-cis, 13-trans-prostadienoic acid] | 5.4 | 24 | 10.6
